In PubChem BioAssay AID1996:
Converted amounts (≈) assume the structure as drawn.

Details: buffer; pH 7.4; 200.0 µM

Structure (SMILES)	solubility kinetic [µg/mL]
COc1ccc(NC(=S)/N=C(\N)Nc2nc(C)c3ccccc3n2)cc1	0.7 (≈ 1.91 µM)
CN(Cc1ccccc1)C(=O)Cc1ccccc1	35.5 (≈ 148 µM)
O=C(Nc1ccccc1Cl)c1cc[n+]([O-])cc1	> 37.3
Cc1ccc(CCC(=O)Nc2ccc(Br)cc2)o1	4.2 (≈ 13.6 µM)
CC1(c2ccccc2)NC(=O)N(CC(=O)Nc2ccc3c(c2)CCC3)C1=O (stereo not given)	3.8 (≈ 10.5 µM)
O=C(O)c1ccc(-c2nnc(-c3ccccc3)o2)cc1	> 39.9
O=C1CSC(c2ccccn2)N1c1ccc(F)cc1F (stereo not given)	> 43.8
O=C(O)c1cc(-c2ccc(Br)s2)nc2ccccc12	> 50.1
O=C(O)c1ccccc1Nc1ccc([N+](=O)[O-])c2nonc12	29.5 (≈ 98.3 µM)
COc1ccccc1-c1noc(CCCC(=O)N2CCOCC2)n1	> 49.7
O=C(O)c1cccc(N(CCO)CCO)c1	> 33.8
COc1nc(C)nc(NC(=O)NS(=O)(=O)c2ccccc2Cl)n1	> 53.7
Cc1ccc(C(C)NC(=O)c2c(-c3ccccc3)noc2C)cc1C (stereo not given)	2.4 (≈ 7.18 µM)
O=C(O)CN(CCc1ccccc1)S(=O)(=O)c1ccccc1	> 47.9
O=C(Nc1ccc(O)cc1)/C(=C/c1ccco1)NC(=O)c1ccccc1	> 52.3
O=C(CSCc1c(F)cccc1F)Nc1ccccc1	37.7 (≈ 129 µM)
C=CCN=C1S/C(=C/c2cccc([N+](=O)[O-])c2)C(=O)N1CC=C	1.5 (≈ 4.55 µM)
Cc1[nH]c(=O)[nH]c(=O)c1S(=O)(=O)Nc1ccc(S(N)(=O)=O)cc1	48.8 (≈ 135 µM)
CCCC(=O)NC(=S)c1c(C)n(C)n(-c2ccccc2)c1=O	> 47.6
S=C(NCc1ccc2c(c1)OCO2)NC1CC1	> 37.5
Cc1ccc2[nH]c3c(c2c1)CNCC3.Cl	31.7
c1ccc(Nc2nc(NCCN3CCOCC3)nc(Nc3ccccc3)n2)cc1	36 (≈ 92 µM)
COc1ccc2c(c1)sc1nc(=O)ccn12	> 34.8
CN(C)/C=C/C(=O)c1ccc(Br)s1	> 39

Structure (SMILES)	solubility kinetic [µg/mL]
O=[N+]([O-])c1ccc(Cl)c(NC(=S)N2CCCC2)c1	9.7 (≈ 33.9 µM)
CC(NC(=O)/C(C#N)=C/c1ccc(OCC(=O)O)cc1)c1ccccc1 (stereo not given)	50.8 (≈ 145 µM)
COC(=O)c1cc(OC)nc(OC)c1	3 (≈ 15.2 µM)
S=C(NCc1cccnc1)NCc1cccnc1	37.4 (≈ 145 µM)
CC(=O)Oc1ccc(-c2cccc(C(=O)N3CCCCC3)c2)cc1	40.8 (≈ 126 µM)
COc1ccc(C(=O)OCC(=O)NCC2CCCO2)c(F)c1 (stereo not given)	> 46.7
CCOc1cc2c(C#N)c(N3CCCCC3)nc(N)c2c(N)n1	10.6 (≈ 33.9 µM)
Cc1cc(C)nc(NC(=O)Nc2ccc(F)cc2F)n1	10.2 (≈ 36.7 µM)
Cc1cccc(C(=O)Nc2ccc3c(c2)ncn3C)c1	> 39.8
O=C(Nc1ccccc1)C1CCCN(C(=O)c2ccc(F)cc2)C1 (stereo not given)	> 49
CCOC(=O)c1c(C)c2c(=O)[nH]cnc2n1-c1ccccc1	2.2 (≈ 7.4 µM)
COCCN(Cc1ccc(F)cc1)C(=O)c1cc2ccccc2oc1=O	> 53.3
CCCCCC(=O)NNC1CC(=O)N(c2ccccc2)C1=O (stereo not given)	> 45.5
CCC(C)[C@H](NC(=O)Nc1ccc2c(c1)OCCO2)C(=O)OC (stereo not given in full)	> 48.4
Cc1ccc(-c2csc(NC3OC(=O)c4ccccc43)n2)cc1 (stereo not given)	0.4 (≈ 1.24 µM)
CC(=O)Nc1cccc(NC(=O)Cc2cccs2)c1	28.4 (≈ 104 µM)
CSc1nc2c(c(=O)[nH]c(=O)n2C)n1CCCc1ccccc1	24 (≈ 72.6 µM)
Cc1cc([N+](=O)[O-])nn1CC(=O)NC1CCCCC1	> 39.9
O=[N+]([O-])c1ccccc1COc1ccc(Cl)c2cccnc12	< 0.3
CN[C@@H]1CC[C@H](c2ccc(Cl)c(Cl)c2)c2ccccc21	28.8 (≈ 94 µM)
O=C(COc1ccc(F)cc1Cl)NC1CCCCCC1	28.3 (≈ 94.4 µM)
O=C(NCc1ccco1)c1ccc(-c2ccc(Cl)cc2)o1	1.2 (≈ 3.98 µM)
Cc1ccc(S(=O)(=O)N2CCOCC2)cc1C(=O)Nc1nc(-c2ccccn2)cs1	23.9 (≈ 53.8 µM)
CC(NC(=O)COc1ccccc1)C(c1cccs1)N1CCCC1 (stereo not given)	> 51.7

Structure (SMILES)	solubility kinetic [µg/mL]
Cc1ccc(C(=O)NCCNC(=O)c2cnccn2)cc1	34.9 (≈ 123 µM)
FC(F)(F)c1ccc(NCCc2ccccc2)nc1	3.7 (≈ 13.9 µM)
Cc1ccc(S(=O)(=O)NC(C)C(=O)Nc2cccc([N+](=O)[O-])c2)cc1 (stereo not given)	8.9 (≈ 24.5 µM)
N#C/C(C(N)=O)=C1/SC=C(c2ccccc2)N1c1ccccc1	0.4 (≈ 1.25 µM)
CC(Sc1nc(N)cc(=O)[nH]1)C(=O)Nc1nc2c(s1)CCCC2 (stereo not given)	8.7 (≈ 24.8 µM)
Cc1ccc(SCc2ccc(C(=O)N3CCCCC3)cc2)cc1	6.1 (≈ 18.7 µM)
COC(=O)c1ccc(COc2ccc(/C=N/O)cc2)o1	> 41.3
CCCOc1ccc(Cl)cc1/C=C1/C(=O)ON=C1C	29.2 (≈ 104 µM)
Cc1c(C)n(CCC(=O)O)c2ccccc12	> 32.6
COc1ccccc1N1CCNC(C)C1=O.Cl (stereo not given)	33.4
COC(=O)c1csc(S(=O)(=O)N2CCOCC2)c1OC	> 48.2
CN(C)c1ccc(/C=N/NC(=O)CNC(=O)c2ccncc2)cc1	> 48.8
O=C(Nc1cccc(S(=O)(=O)N2CCCC2)c1)c1cncc(Br)c1	60.4 (≈ 147 µM)
O=C(Cc1ccc(Cl)cc1)Nc1ccc(Br)cn1	1.4 (≈ 4.3 µM)
COc1ccc(NC(=O)c2ccc(NC(=O)CN3CCN(c4ccccc4)CC3)cc2)cc1	1.4 (≈ 3.15 µM)
CSc1oc(-c2cccs2)nc1S(=O)(=O)c1ccccc1	3.9 (≈ 11.6 µM)
COCCNC(=O)CN1C(=O)NC2(CCCCCC2)C1=O	> 44.6
CN(CC(=O)Nc1cccc([N+](=O)[O-])c1)S(=O)(=O)c1ccccc1	> 52.4
O=C(Nc1cccnc1)Nc1cccc([N+](=O)[O-])c1	10 (≈ 38.7 µM)
CN(C(=O)Nc1cccc(C(F)(F)F)c1)C1CCCCC1	< 0.3
Clc1ccc(N2CCN(c3ccnc(Cl)n3)CC2)cc1	2.3 (≈ 7.44 µM)
CCCC1CC(C(=O)Nc2ccccc2)C(=O)O1 (stereo not given)	33 (≈ 133 µM)
COc1cccc(C(=O)N2CCN(c3ccccn3)CC2)c1	43.8 (≈ 147 µM)
Cc1ccc(/C=C2/SC(=S)N(CCC(=O)N3CCOCC3)C2=O)cc1	< 0.4

Structure (SMILES)	solubility kinetic [µg/mL]
CCn1c(SCC(=O)Nc2ccccc2OC)nc(O)cc1=O	47.7 (≈ 142 µM)
Cc1noc(NS(=O)(=O)c2ccc(NC(=O)c3cc4ccccc4o3)cc2)c1C	61.6 (≈ 150 µM)
CCSc1ncccc1C(=O)N[C@@H](CCSC)C(=O)OC	36.1 (≈ 110 µM)
Cc1cc(C(=O)OCC(=O)NC2CCCC(C)C2C)c(C)o1 (stereo not given)	12.4 (≈ 40.3 µM)
CCOC(=O)NC(=S)Nc1ccc(OC)cc1	25.6 (≈ 101 µM)
COc1ccc(N2C(=O)CC(c3ccc([N+](=O)[O-])cc3)C2=O)cc1 (stereo not given)	14.9 (≈ 45.7 µM)
CCOc1ccc(Oc2ccccc2NC(=O)CCNC(C)=O)cc1	> 51.4
Fc1ccccc1Nc1nc2ccccc2o1	16.9 (≈ 74 µM)
CCOc1ccc(S(=O)(=O)N2CN(c3cccc(C(C)=O)c3)c3nc4ccccc4nc32)cc1	3.1 (≈ 6.53 µM)
CCCC(=O)Nc1cccc(Oc2ccc3c(c2)C(=O)NC3=O)c1	11.6 (≈ 35.8 µM)
Cc1nonc1NC(=O)CSc1ccccn1	> 37.5
CCCN1C2CCCC1CC(NC(=O)NC13CC4CC(CC(C4)C1)C3)C2 (stereo not given)	> 53.9
CCOc1ncccc1-c1nc(-c2cccs2)no1	1.8 (≈ 6.59 µM)
O=C(COC(=O)c1cccc(Cl)c1)Nc1ccc2[nH]c(=O)[nH]c2c1	0.8 (≈ 2.31 µM)
Cc1cc(NCc2ccccc2)c2ccccc2n1.Cl	> 42.7
COc1ccc(NC2CCCN(C(=O)c3c(C)noc3C)C2)cc1 (stereo not given)	> 49.4
CCOc1ccc(-n2c(C)c(C(=O)O)c3cc(OC)ccc32)cc1	6.3 (≈ 19.4 µM)
O=C(NC1=NCCS1)c1cccc(F)c1	> 33.6
Cc1[nH]c2ccccc2c1C(=O)C(=O)N1CC2CC(C1)c1cccc(=O)n1C2 (stereo not given)	> 56.3
O=C(COC(=O)C1CC2CCCC(C1)C2=O)Nc1cccc(F)c1 (stereo not given)	> 50
COCCSc1ccccc1C(=O)N1CCc2ccccc2C1	> 49.1
COc1ccc(CCNC(=O)c2ccccc2)cc1	> 38.3
COc1ccc(/C=C/C(=O)NC(=S)N2CCN(C)CC2)cc1	> 47.9
COc1ccc(C(=O)Nc2ccc(NC(=O)C3CCCCC3)nc2)cc1	0.4 (≈ 1.13 µM)

Structure (SMILES)	solubility kinetic [µg/mL]
Cc1cccc(Nc2nc(C)cc(C)n2)c1.Cl	20.1
COc1ccc(CCNCC2CCCO2)cc1.Cl (stereo not given)	35.2
Cc1ccccc1CC(=O)N1CCCC1	29.7 (≈ 146 µM)
COc1ccc2nc(C)cc(N3CCC(C(N)=O)CC3)c2c1	42.3 (≈ 141 µM)
NC(=O)c1ccsc1NC(=O)COC(=O)c1cnccn1	> 45.9
CC(=O)Oc1cccc(Nc2ncnc3ccccc23)c1	> 41.9
O=C(CSc1cc(Cl)ccc1Cl)NCCCn1ccnc1	45.3 (≈ 132 µM)
C=CCNC(=O)C1CCN(c2cnccn2)CC1	> 36.9
CCOc1ncccc1C(=O)Nc1ccc2c(c1)OCCO2	> 45
COc1cc(C(=O)COC(=O)c2c(C)noc2C)cc(OC)c1OC	> 52.4
O=C1CCN(C(=O)Cc2ccccc2[N+](=O)[O-])CC1	> 39.3
COc1ccc(CC(=O)NCc2nc(-c3ccccc3)no2)cc1	13.4 (≈ 41.4 µM)
COCCNC(=O)c1ccc2c(Cl)c3c(nc2c1)CCC3	> 45.7
CCOC(=O)c1ccc(N=Cc2c(O)c3ccccc3oc2=O)cc1	4.7 (≈ 13.9 µM)
CC(C)Cc1nc(Cl)c(C#N)c2c1CCC2	3.8 (≈ 16.2 µM)
Clc1ccccc1CN1CCN(c2cccc3[nH]ccc23)CC1	23.5 (≈ 72.1 µM)
CCCCOC(=O)N1CCOCCOCCOCC1	40.2 (≈ 146 µM)
c1ccc(-c2nc3ccccn3c2-c2ccccc2)cc1	10.1 (≈ 37.4 µM)
O=C(CNC(=O)c1ccccc1)OCC(=O)c1ccccc1Cl	> 49.8
O=[N+]([O-])c1ccc(CCn2ccnc2)cc1	> 32.6
CCn1c(=O)c2cc(C(=O)NCCC(C)C)sc2c2ccccc21	< 0.4
Cc1ccc(C(=O)N2CCCC(Nc3ccc(F)c(F)c3)C2)cn1 (stereo not given)	> 49.7
CN(CCC#N)C(=O)c1cc2c(Cl)nc3ccccc3c2s1	1.1 (≈ 3.34 µM)
CCCCN1CC2=C(C1=O)C(c1ccc(O)cc1)NC(=O)N2C (stereo not given)	> 47.3
